According to patent US9365851B2, “Spalt-like transcription factor 4 (SALL4) and uses thereof” (National University of Singapore, priority 2011, dated 2016):
“Also recorded” adds a separate entry of the source.

Experiments:
SNU-398 cells = assay: Cell viability assay (MTT/MTS); type: cell-based, human; conditions: for cell viability / number of viable cells: SNU-398 (high SALL4), 72 h; for cell viability upon SALL4 knockdown: SNU-398, MTS
Procedure: (§1) Cell viability was determined 72 hours after peptide treatments. Absorbance at 490 nm is directly correlated to cell viability. Wild type functional SALL4 peptide (wt), mutant non-functional SALL4 peptide (Mut.), trichostatin A (TSA), scrambled control peptide (Scr.), wild type peptide+PTEN inhibitor SF1670 (wt+Inh.) were given to the cells at the indicated concentration. PTEN inhibitor concentration was 400 nM. (31C, 31D) Western blot analyses of the effects of peptides on PTEN, AKT, and pAKT expression on SNU-398 (31C) and SNU-387 (31D) cells 72 hours following peptide treatments. 20 μM of wt or Scr. peptide or 100 nM of TSA was used. PTEN inhibitor concentration was 400 nM. (31E) Representative images show NOD/SCID mice transplanted with Scr peptide- and wt peptide-treated SNU-398 cells (left) and the dissected subcutaneous tumors (right). Arrow indicates subcutaneous tumor. (31F) Growth curve of subcutaneous tumors (left panel) and tumor weight of tumors dissected at day 26 post-transplantation (right panel). Results are mean±s.d. n=5; * P<0.05. (31G) Representative images show NOD/SCID mice transplanted with 3 million SNU-398 cells at the left flank and treated intraperitoneally for five consecutive days with 56 mg/kg body weight TAT-Mut. peptide or 60 mg/kg body weight wt peptide (top panel) and the dissected subcutaneous tumors (bottom). (31H) Tumor weight of tumors dissected at day 18 post-transplantation and post-treatment of mice treated intraperitoneally with TAT fusion peptides as described in 5 g. Results are mean±s.d. n=5; * P<0.05.
(§2) Cell viability assay (MTT) (Invitrogen) was performed according to the manufacturer's instructions. Briefly—10000 cells were seeded in 100 ul medium in 96 well plates. The next day cells were treated as indicated on the figures. At the designated time after the treatment 20 ul of 5 mg/ml MTT solution was added to each well. After 3.5 h incubation at 37 C the medium was removed and the reaction was terminated with a solution of 4 mM HCl, 0.1% Nondet P-40 (NP40) all in isopropanol in dark on orbital shaker for […]. at room temperature. The absorbance was read at 590 nm with a reference filter of 620 nm in Spectromax M3 (ABI) spectrophotometer.
Multiple leukemic and solid tumor cancer cell lines with high or low/no SALL4 expression (FIG. 10A) were chosen to test the biological effect(s) of the wild type peptide. Wild type or scrambled peptide was delivered into tumor cells at various concentrations, and their effects on cells were evaluated 72 hours post-treatment by the MTS cell viability assay. […] The effect of wild type peptide is SALL4-specific, as it had no effect on KBM5, an AML cell line with undetectable endogenous SALL4 expression. We were surprised to see that the wild type peptide had no effect on a high SALL4-expressing endometrioid cancer cell line, AN3CA. This prompted checking whether PTEN, a gene repressed by SALL4 through its interaction with NuRD 27, was present in this cell line. According to the model herein, the function of wild type peptide requires both the expression of SALL4 and intact SALL4 downstream target genes, such as PTEN. In tumor cells with PTEN deletion, even though wild type peptide could compete with endogenous SALL4 in interacting with the HDAC complex, an anti-proliferative effect might not be observed. Therefore, expression of PTEN was evaluated in AN3CA cells along with other cell lines. While PTEN protein was present in all the other cell lines, it was absent in AN3CA cells (FIG. 10C), with reported deletion mutation of the gene in this cell line 40,41. […] Furthermore, the anti-proliferative effect also required certain downstream targets, such as PTEN.
7000 cells were seeded in each wells of a microtiter plate in 100 μL of complete medium. Cells from each treatment were seeded in duplicate. Controls using the same medium without cells were set up in parallel. […]

c-Myc = c-Myc protein expression in SNU-398 cells; type: cell-based, human
Procedure: Also tested was whether wt peptide could affect genes that were known to be activated by SALL4, such as c-Myc. SNU-398 cells treated with wt or Scr peptide were evaluated for c-Myc protein expression. No change was observed among SNU-398 cells that were not treated or treated with either wt, Scr or TSA. When combined, the observation on the biological effects of the peptide treatment and the expression of Pten/Akt pathway in these cells, it was noticed that the wt peptide and its role in cell death promotion was correlated to its effect on the expression levels of Pten/Akt.

SNU-387 cells = assay: Cell viability assay (MTT/MTS); type: cell-based, human; conditions: for cell viability / number of viable cells: SNU-387 (low/no SALL4), 72 h
Procedure: as §1, §2
7000 cells were seeded in each wells of a microtiter plate in 100 μL of complete medium. Cells from each treatment were seeded in duplicate. Controls using the same medium without cells were set up in parallel. At various time points, 317 μg/mL of 3-(4,5-dimethylthiazol-2-yl)-5-(3-carboxymethoxyphenyl)-2-(4-sulfophenyl)-2H-tetrazolium (CellTiter96® AQueous One Solution Cell Proliferation Assay, Promega) was added to each well. After four hours incubation of the tetrazolium salt, absorbance at 490 nm was read by a microplate reader.

PTEN/AKT pathway = PTEN/AKT pathway expression in THP1 cells (Western blot); type: cell-based
Excerpt: To further evaluate the specificity of the SALL4/PTEN pathway, next investigated was whether wild type peptide treatment could affect the expression of PTEN and its downstream target, phosphorylated AKT (pAKT).

| Compound | cell viability / number of viable cells (SNU-398 cells) | cell viability / number of viable cells (SNU-398 cells; listed as SALL4 peptide (wt)) | cell viability / number of viable cells (SNU-398 cells; listed as wild type peptide) | c-Myc protein expression (c-Myc) | cell viability / number of viable cells (SNU-387 cells) | cell viability / number of viable cells (SNU-387 cells; listed as SALL4 peptide) | cell viability / number of viable cells (SNU-387 cells; listed as wt) | PTEN expression (PTEN/AKT pathway) | pAKT on Ser 473 (PTEN/AKT pathway) | cell viability upon SALL4 knockdown (SNU-398 cells) | cell viability upon SALL4 knockdown (SNU-398 cells; listed as E5) | cell viability upon SALL4 knockdown (SNU-387 cells; SNU-387, MTS) |
| --- | --- | --- | --- | --- | --- | --- | --- | --- | --- | --- | --- | --- |
| H-MSRRKQAKPQHI-OH [wt peptide, MSRRKQAKPQHI] | decreased cell viability; also recorded: reduced the amount of living cells in dose dependent manner | the number of viable cells was reduced | decreased cell viability | No change | had no effects; also recorded: did not affect the cell viability | had no effect | no change in cell viability | increased PTEN expression | significantly reduced |  |  |  |
| CC(/C=C/C(=O)NO)=C\[C@@H](C)C(=O)c1ccc(N(C)C)cc1 [TSA, Trichostatin A, reference compound] | effectively induced reduction in the number of viable HCC cells |  |  | No change |  |  |  | increased PTEN expression | significantly reduced |  |  |  |
| Scr peptide: same 12 amino acids as the wt peptide, but in a scrambled sequence; negative control (SRMRQKIHPKIQ) [reference compound] | remained unaffected |  |  | No change | no change in cell viability |  |  | No effect | No effect |  |  |  |
| CTATTTAGCCAAAGGCAAA (short hairpin RNA, chemistry and delivery not given here, further chemistry not given here) [E5 shRNA] |  |  |  |  |  |  |  |  |  | number of viable cells decreased | decreased cell viability | number of viable cells was similar |
